Laboratory results reported in patent US9586896B2, “Nitroxyl donors with improved therapeutic index” (Cardioxyl Pharmaceuticals, Inc., priority 2013, dated 2017).
Like-named read-outs stand apart in the source and are kept apart here.

Assays:
[1] = In vitro stability (half-life) in rat plasma; format: in vitro ADME; details: male, rat plasma pH 7.4, anticoagulant, 37° C., read-out: T1/2 (minutes) Rat
Method: (§1) Compound (1), compound (2), and CXL-1020 were tested for their stability in plasma. The assay system comprised (i) PBS, or plasma from rat, dog or human (at least 3 donors, male, pooled) at pH 7.4, and (ii) for tests conducted in plasma, an anticoagulant (sodium heparin or sodium citrate). Each test compound (5 μM) was incubated in PBS or plasma at 37° C. on a THERMOMIXER® with shaking Three samples (n=3) were taken at each of seven sampling time points: 0, 10, 30, 60, 90, 180 and 360 minutes. The samples were immediately combined with 3 volumes (i.e., 3 times the volume of PBS or plasma) of acetonitrile containing 1% formic acid and an internal standard to terminate the reaction. AB SCIEX API 3000 LC-MS/MS analysis of the test compounds was performed without a standard curve. Half-lives (T1/2) of the test compounds were determined from graphs of the percent remaining values using the peak area response ratio.

[2] = In vitro stability (half-life) in dog plasma; format: in vitro ADME; details: male, dog plasma pH 7.4, anticoagulant, 37° C., read-out: T1/2 (minutes) Dog
Method: as §1

[3] = Solubility by visual assessment in pH 4 buffer; format: physicochemical; details: pH 4 citrate buffer, pH 4, aqueous buffer, thermodynamic from solid, shaken 5 minutes
Method: Initially, the solubilities of the compounds of formula (1) and formula (2) were measured by visual assessment at 100 μg/mL and 1000 μg/mL in a pH 4 buffer. The buffer was prepared by mixing 660 mL of Solution A (10.5023 g of citric acid dissolved in 1 L of water) and […] of Solution B (14.7010 g of sodium citrate tribasic dihydrate dissolved in 1 L of water). The pH of the buffer was 3.98 as measured by pH meter. Each compound was shaken for about 5 minutes in the pH 4 buffer solution prepared above at two concentration points (100 μg/mL and 1000 μg/mL) and the solubility was observed visually.

normal canines = experiment: Hemodynamic efficacy (PV loop analysis) in normal canines; format: in vivo, beagle dogs; details: i.v. infusion
Method: The cardiovascular effects of nitroxyl donors were examined by means of pressure-volume (PV) curve (loops) analysis in conscious, sling-restrained beagle dogs. Animals were allowed free access to drinking water and a commercial canine diet under standard laboratory conditions. Fluorescent lighting was provided via an automatic timer for approximately 12 hours per day. On occasion, the dark cycle was interrupted intermittently due to study-related activities. Temperature and humidity were monitored and recorded daily and maintained to the maximum extent possible between 64° F. and 84° F. and 30% to 70%, respectively. The dogs were acclimated for a period of at least 1 week prior to surgery. Following surgery and recovery the animals were acclimated to sling restraint for a period up to 4.5 hours. Animals were fasted overnight prior to surgery.
Once a stable (surgical) plane of anesthesia had been established, a left-thoracotomy was performed (under strict aseptic conditions) and each animal was chronically instrumented with sono-micrometry crystals providing left-ventricular (LV) dimensions/volume. Additionally, a fluid-filled catheter and a solid-state monometer were placed in the left ventricle for pressure monitoring. A fluid-filled catheter was placed in the right ventricle (RV) and the aorta (Ao) for pressure monitoring/test article administration. […] The catheters/wires were aseptically tunneled and externalized between the scapulae. Over the course of the study, fluid-filled catheters were regularly (at least once weekly) flushed with a locking-solution in order to prevent both clotting and bacterial growth (2-3 mL of Taurolidine-Citrate solution, TCS-04; Access Technologies).
The animals (normal or heart failure) were studied during treatment with both vehicle (control) and a nitroxyl donor (either CXL-1020, a compound of formula (1) or a compound of formula (2)). At each dosing period, conscious sling-restrained animals were continuously monitored for up to two to three hours. Following hemodynamic stabilization, infusion of the vehicle was started. […] Infusion of the vehicle was continued and after 30 min another (baseline) set of hemodynamic data was collected. Following collection of baseline hemodynamic data, infusion of the nitroxyl donor compound being tested was initiated and derived hemodynamic/functional parameters were obtained/performed at up to four (4) time points selected from the following: at 30, 60, 90, 120, and 180 minutes after the onset of vehicle/test compound infusion. For the placebo or time-control treatment group, each animal was administered an infusion of an appropriate placebo for up to 180 minutes. In all cases, the test compound was delivered at a constant intravenous infusion rate of 1 mL/kg/hr and was compared at a molar equivalent dose rate.
The resulting left-ventricular pressure and volume data were analyzed in order to generate relationships representing the contractile and energetic state of the myocardium. Systolic arterial pressure (SAP), diastolic arterial pressure (DAP), and mean arterial pressure (MAP) were collected. Left-ventricular mechanical and/or geometrical indices were obtained from the pressure (ESP, EDP, dP/dt max/min, time-constant of relaxation-tau [based on mono-exponential decay with non-zero asymptote]) and volume (end-systolic volume (ESV), end diastolic volume (EDV), stroke volume (SV)) signal. In addition, the following measurements were derived from left-ventricular pressure-volume data (PV loops) generated during brief periods of preload reduction: pressure volume area (PVA) and stroke work (SW), end-systolic (ESPVR) and end-diastolic (EDPVR) pressure volume relationships, and end systolic pressure and stroke volume relationship (arterial elastance (Ea)). Representative data obtained from studies in normal dogs and heart failure dogs is shown in Table 5 and Table 6, respectively. A SVR (systemic vascular resistance) decrease correlates with vasodilation.

dogs = experiment: 14-day continuous infusion tolerance study of CXL-1020 in dogs; format: in vivo
Method: During in vivo trials of the nitroxyl donor, CXL-1020 (N-hydroxy-2-methanesulfonylbenzene-1-sulfonamide), a 14-day study was conducted to evaluate tolerance in dogs treated with continuous infusions of CXL-1020 at dose rates of up to 90 μg/kg/min. […] To further investigate this undesirable side-effect, a follow-up 14-day study in dogs was initiated.

healthy volunteers = experiment: 24-hour continuous infusion dose escalation study of CXL-1020 in healthy volunteers; format: in vivo, humans; details: forearm vein infusion
Method: To determine whether a local phlebitis would occur in humans upon longer duration dosing, a longer duration study was conducted in healthy volunteers. The longer duration study included a dose escalation study in which cohorts of 10 volunteers were to be sequentially administered a 24-hour continuous infusion of CXL-1020 at the dose rates of 10, 20, and 30 μg/kg/min with a safety assessment between each cohort. Each cohort consisted of 2 placebo and 8 active treatments with a sentinel pair of 1 active and 1 placebo followed by the main group of 1 placebo and 7 active treatments. The infusion was via a percutaneous catheter inserted into a forearm vein. The catheter was switched to the contralateral arm after 12 hours of infusion.

[4] = 100 μg/mL, read-out: Solubility (100 μg/mL)
[5] = 1000 μg/mL, read-out: Solubility (1000 μg/mL)
[6] = dose rate 50 (μmol/kg/min [sic])

SMILES	half-life at 5 μM [1] [min]	half-life at 5 μM [2] [min]	solubility at 5 min [3, 4] [µg/mL]	solubility at 5 min [3, 5] [µg/mL]	Tau (% Change from Baseline) (normal canines; dose rate 100 (μmol/kg/min [sic])) [%]	dose rate tolerated (dogs) [µg/kg/min]	tolerability at 10 μg/kg/min for 24-hours (healthy volunteers; 10 μg/kg/min)	findings at 20 μg/kg/min for 24-hours (healthy volunteers; 20 μg/kg/min)	EDV (% Change from Baseline) (normal canines; [6]) [%]	ESP (% Change from Baseline) (normal canines; [6]) [%]	ESPVR (% Change from Baseline) (normal canines; [6]) [%]	HR (% Change from Baseline) (normal canines; [6]) [%]	PRSW (% Change from Baseline) (normal canines; [6]) [%]	SW (% Change from Baseline) (normal canines; [6]) [%]	Tau (% Change from Baseline) (normal canines; [6]) [%]
CS(=O)(=O)c1cccc(S(=O)(=O)NO)c1 [(2), N-Hydroxy-3-methanesulfonylbenzene-1-sulfonamide]	20	33	> 100	> 1000	−6.40 ± 7.11										
CS(=O)(=O)c1ccccc1S(=O)(=O)NO [CXL-1020, N-hydroxy-2-methanesulfonylbenzene-1-sulfonamide]						60	well tolerated	mild findings (either clinical signs and/or changes in clinical pathology) in all 8 subjects consistent with infusion site phlebitis							
Cc1ccc(S(=O)(=O)NO)o1 [Compound (1), N-Hydroxy-5-methylfuran-2-sulfonamide]	40	25	> 100	> 1000					−6 ± 2	−18 ± 2	19 ± 1	−4 ± 2	12 ± 1	−11 ± 4	−6 ± 1
